Among the data in BindingDB's records for doi:10.1016/j.bmcl.2015.05.099 (Mercer University, 2015) are Kd values, retold here.

The structures appear in SMILES notation.

Assay [1] deals with T1, Albumin (Homo sapiens, UniProt P02768). The assay can be described thus: Binding affinity to human serum albumin with excitation at 285 nm after 30 mins by fluorescence spectrophotometric analysis.
The target of assay [2] is T1, Albumin. The assay can be described thus: Binding affinity to human serum albumin with excitation at 295 nm after 30 mins by fluorescence spectrophotometric analysis.

T1 sequence (P02768 whole entry): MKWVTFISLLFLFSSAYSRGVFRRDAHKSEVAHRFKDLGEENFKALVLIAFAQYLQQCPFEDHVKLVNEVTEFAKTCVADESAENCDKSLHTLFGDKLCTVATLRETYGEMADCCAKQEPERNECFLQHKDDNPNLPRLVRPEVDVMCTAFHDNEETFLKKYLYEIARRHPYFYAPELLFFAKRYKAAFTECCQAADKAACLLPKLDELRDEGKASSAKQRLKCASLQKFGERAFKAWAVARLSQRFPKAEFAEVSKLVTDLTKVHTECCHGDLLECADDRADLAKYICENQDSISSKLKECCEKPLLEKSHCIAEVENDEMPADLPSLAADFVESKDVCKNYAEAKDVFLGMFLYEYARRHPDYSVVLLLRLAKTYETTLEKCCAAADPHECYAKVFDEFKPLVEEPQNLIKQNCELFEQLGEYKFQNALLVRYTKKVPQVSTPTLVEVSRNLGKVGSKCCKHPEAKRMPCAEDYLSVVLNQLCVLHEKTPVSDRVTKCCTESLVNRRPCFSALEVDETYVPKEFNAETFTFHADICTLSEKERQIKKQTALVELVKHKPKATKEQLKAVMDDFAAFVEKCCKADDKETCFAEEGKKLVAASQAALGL

The term Kd denotes the free concentration of one partner at which half of the binding sites on the other are occupied at equilibrium, for simple one-to-one binding. Read a high Kd as weaker binding. For `C=C(C)[C@@H]1CC[C@]2(C(=O)N[C@H](C)C(=O)[O-])CC[C@]3(C)[C@H](CC[C@@H]4[C@@]5(C)CC[C@H](O)C(C)(C)[C@@H]5CC[C@]43C)[C@@H]12.CCCCCCCCCCCC[N+](C)(C)Cc1ccccc1`, the Kd on Albumin [1] and at Albumin [2] was 19 µM in each case.
On to `C=C(C)[C@@H]1CC[C@]2(C(=O)N[C@H](C)C(=O)O)CC[C@]3(C)[C@H](CC[C@@H]4[C@@]5(C)CC[C@H](O)C(C)(C)[C@@H]5CC[C@]43C)[C@@H]12`, for which the values for the Kd on Albumin [1] and on Albumin [2] were 47 µM and 37 µM, respectively.
In the same order, the values of `C=C(C)[C@@H]1CC[C@]2(C(=O)[O-])CC[C@]3(C)[C@H](CC[C@@H]4[C@@]5(C)CC[C@H](O)C(C)(C)[C@@H]5CC[C@]43C)[C@@H]12.CCCCCCCCCCCC[N+](C)(C)Cc1ccccc1` are 1.6 µM and 1.9 µM.
